# In EP0004835A1, “Ethanolamine compounds, processes for their preparation, pharmaceutical preparations containing them and their medicinal use” (priority 1978, dated 1979):
# Several values for one entry are separate records, joined by “and”; a condition that tells them apart may be missing. Equal entries are not always repeated. Structures can show the parent of a compound that is named as a salt. Where two headings read alike, the source gives them in different places.
# Assays:
# heart frequency = assay: Heart stimulating effect in anaesthetized cat (simultaneous recording); format: in vivo
# Description: (§1) A. Simultaneous recording of bronchospasmolytic effect, tremorogenic effect and heart stimulating effect
# (§2) The method used is described in detail by 0 A T Olsson, Acta pharmacol et toxicol 34, 106-114 (1974).
# (§3) Cats weighing 2.5-3.5 kg are anaesthetized with pento- barbital (mebumalum NFN) at first by an intraperitoneal injection (30 mg/kg) and afterwards by continuous intravenous infusion to keep the level of anaesthesia constant during the experiment.
# Arterial blood pressure is measured with a Statham transducer from a cannulated carotid artery. Heart frequency is monitored by means of a tachometer set to trigger off the R-wave of the electro-cardiogram.
# (§4) The bronchospasmolytic effect is measured as the dose, calculated in moles per kg bodyweight of the test animal, which gives 30 % decrease of the histamine induced bronchospasm. […] The heart stimulating effect is measured as the dose, calculated in moles per kg bodyweight of the test animal, which gives 25 % increase in the heart frequency.
# [1] = system: electrically induced contractions of the soleus muscle; assay: Tremorogenic effect in anaesthetized cat (soleus muscle, simultaneous recording); format: in vivo; details: narcotized cat, i.v., based on molar dose giving 30 % decrease of electrically induced soleus contractions, terbutaline = 1
# Description: as §1
# (§5) The bronchospasmolytic effect and the tremorogenic effect were measured simultaneously in anaesthetized cat.
# as §2, §3
# The soleus muscle in the hind limb, consisting mainly a -slow contracting fibres, is prepared essentially according to Bowman & Zaimis, J Physiol 144, 92-107 (1958). The muscle is enclosed in a chamber made of a rubbercovered plastic "hair-curler". The entire leg is wrapped in metal foil covered with plastic to keep the temperature constant at 35-36°C (controlled by thermo couples in the.leg). The cat is placed on its back on a thermostatically controlled operation table and the right hind limb fixed, special care being taken not to impede the blood flow.The tendon is cut and attached to a Grass strain gauge (FT 10C). The isometric tension of the muscle is calibrated to 50 g (resting tension) and 500 g (maximal tension). A plexiglas shielded bipolar Pt-electrode is placed on the tibialis nerve, near the soleus. The incomplete tetanic contractions of the muscle are elicited by a square wave pulse stimulation of the nerve by the use of a Grass S48 stimulator. The pulse duration is 0.05 msec, with frequencies selected in the range 8-12 Hz and the strength between 5-8. volts. The stimulation occurs for 1.8 sec every 20 sec.
# as §4
# [2] = system: histamine induced bronchospasm; assay: Bronchospasmolytic effect in anaesthetized cat (simultaneous recording); format: in vivo; details: narcotized cat, i.v. (brachial vein), based on molar dose giving 30 % decrease of histamine induced bronchospasm, terbutaline = 1
# Description: as §1, §5, §2, §3
# The trachea is cannulated and the lungs inflated with room air by means of a constant volume Braun-respirator. The frequency is 15-20 per min and the tidal volume 8-10 ml per kg, or just sufficient to suppress spontaneous breathing movements and to give about 150 ml/kg/min. The change in tidal volume from administered constricting agents is measured as the amount of air overflow from the delivery of a constant volume to a fixed respiration. The pressure is determined by a water (60-70 mm) pressure threshold and respiratory overflow determined by means of a Grass-volumetric pressure transducer PT 5A. Bronchial tone is increased by inhalation of a histamine aerosol generated in a Roth-Petersen nebulizer from a solution containing 0.1-0.3 mg/ml of histamine and made up to 5 % by glycerol. The nebulizer is connected to the inlet of the respirator when bronchospasm is to be produced. When the respiratory overflow has reached an even level, .the compound to be tested for bronchorealxing activity is injected into the brachial vein.
# as §4
# [3] = system: histamine induced bronchoconstriction; assay: Bronchospasmolytic activity at oral and subcutaneous administration, histamine aerosol, unanaesthetized guinea-pigs; format: in vivo; details: for ED50: Cavia porcellus, read-out: Dose protecting 50 % of the test animals against the histamine aerosol during more than 4 minutes (ED50)
# Description: .The bronchospasmolytic activity of a compound of the invention at oral administration was tested on guinea-pigs. The compound according to Example 1 having the code designation D 2343, was tested. Terbutaline was used as reference substance.
# The bronchospasmolytic effect was tested as the inhibitory effect on histamine induced bronchoconstriction in unanaesthetized guinea-pigs.
# The test animals were exposed to a histamine mist generated by a Roth-Petersen nebulizer from a solution of 0.3 mg/ml of histamine-chloride.
# Guinea-pigs, strain Dunkin-Hartle.y, both sexes, 190-250 g were used. Saline treated control animals start a forced and irregular breathing after less than 4 minutes exposure to the aerosol. Drug-treated animals sustaining the histamine aerosol 4 minutes without a breathing influence are regarded as protected. In the study with oral administration, the animals were starved for about 15 hours with water ad libitum before D 2343 or terbutaline was administered by a stomach tube.
# Each compound was administered to 30-40 animals.
# In the investigation with oral administration the time from drug administration to exposure of the animal to histamine was 30 minutes.
# The ED50 doses are calculated on molar basis in moles per kg bodyweight of the test animal.
# a-receptor = a-receptor blocking activity, noradrenaline-induced contraction of rabbit aortic strips; set-up: species or system Albino rabbits; details: for IC50: compound added 10 minutes before noradrenaline, called EC 50, 6 preparations from 3 animals, read-out: Concentration inhibiting 50 % noradrenaline-induced contraction
# From the text: The a-receptor blocking activity of two compounds of the invention was investigated. This effect is relevant in the treatment of asthma. It has been shown, e.g. by Nousiainen et al, Pharmacology 15, 469-477 (1977), that certain compounds having a-blocking effect may potentiate the effects of S-receptor-stimulating agents such as terbutaline.
# In the test, the a-receptor blocking substance thymoxamine was used as reference.
# Albino rabbits of both sexes (2-3 kg) were used. About 5 cm of the aorta was dissected out as near the arch as possible, transferred to a dish with Krebs solution and cut spirally. Usually 3 preparations were received from the dissected piece of vessel. Each strip was mounted in an organ bath in Krebs solution of 37°C and aerated with carbogen. The load on the preparation was 2 g and the tension changes recorded isometrically on Grass transducer FR03 and polygraph P5.
# Noradrenaline, which is a strong a-receptor stimulating agent, exerts a contracting effect on the aortic strips when added to the bath. The a-receptor blocking effect of the test compound is measured by adding the test compound to the organ bath before adding nor-adrenaline.
# Noradrenaline solution with a concentration producing 70-80 % of maximal contraction (0.03-0.06 µg/ml) was used. The test compound was added to the organ bath 10 minutes before the addition of noradrenaline.
# The results are measured as the concentration of the test compound which inhibits the noradrenaline-induced contraction by 50 % (EC 50).
# The EC 50 values are based on tests on 6 preparations obtained from 3 animals.
# rat uterus = rat uterus (Rattus norvegicus, UniProt P10608); assay: Inhibitory activity on oxytocin and carbachol induced contractions of rat uterus in vitro; set-up: species or system Sprague-Dawley rats; details: result in words
# Chain of rat uterus (P10608 whole entry): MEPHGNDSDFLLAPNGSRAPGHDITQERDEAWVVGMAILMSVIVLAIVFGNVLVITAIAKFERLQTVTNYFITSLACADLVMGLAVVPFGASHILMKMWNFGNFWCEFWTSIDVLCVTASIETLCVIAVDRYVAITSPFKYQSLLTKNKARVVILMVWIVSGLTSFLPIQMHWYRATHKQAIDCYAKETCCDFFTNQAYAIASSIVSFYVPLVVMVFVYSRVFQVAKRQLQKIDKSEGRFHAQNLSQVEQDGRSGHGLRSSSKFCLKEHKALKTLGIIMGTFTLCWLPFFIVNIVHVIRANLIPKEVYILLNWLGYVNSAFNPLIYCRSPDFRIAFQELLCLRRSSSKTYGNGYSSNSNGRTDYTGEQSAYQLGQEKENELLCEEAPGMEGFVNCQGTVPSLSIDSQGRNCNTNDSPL
# Description: 'The uterus relaxing effect of the compounds of the invention was tested. Terbutaline was used as reference substance.
# Female Sprague-Dawley rats, 150-200 g, were used. An oestrogen steroid (Estradurin, Leo), 0.25 mg/100 g, was administered s.c. 4-6 days before the experiments to bring the animals in oesterus.
# The uterus horn were cut open longitudinally, mounted in organ baths in Locke solution at 33°C and gassed with carbogen. The contraction of the preparation was producted by oxytocin (Partocon, Ferring) or carbachol and given to the bath 3 min after administration of the test substance in a dose producing 70-80 % of the maximum contraction or 0.005-0.02 IE/ml of oxytocin and 0.2-0.6 µg/ml of carbacho- line chloride. The inhibitory effect produced by the test substance was eliminated by propranolol (1 µg/ml or 0.4x10^-5 M given to the bath 15 minutes before the drugs).
# The tension changes were recorded isometrically (transducer FP03 and Grass polygraph P5).
# The results are given as the concentration of the test compound which reduces the contraction induced by oxytocin and carbachol, respectively, by 50 % (EC 50).
# Oxytocinseries: 10 preparations from 6 animals Carbacholseries: 9 preparations from 5 animals
# Acute toxicity in mice = details: mouse, in vivo
# Description: The acute toxicity of the compound D 2343 of the invention was investigated.
# Male mice (NMRI) 20-25 g were used. The test compound was administered intravenously (by tail vein), subcutaneously. intraperitoneally and orally (by stomach tube to starved animals) in 6 dose levels in log- sequence with 10 or more animals tested at each dose level to determine the LD50'
# After toxic doses the death followed within the first hour after i.v., s.c. and i.p. and during the first three hours after p.o. administration. No further mortality was noted during the following 5 days the animals were observed.
# [4] = system: histamine induced bronchoconstriction; assay: Onset and duration of bronchospasmolytic activity after oral administration, histamine aerosol, unanaesthetized guinea-pigs; format: in vivo; details: result in words
# Description: These compounds have the structural formulas [drawing 91] (Compound of Example 1) [drawing 92] (Compound of Example 4) The bronchospasmolytic effect was tested as the inhibitory effect on histamine induced bronchoconstriction in unanaesthetized guinea-pigs. The test animals were exposed to a histamine mist generated by a Roth-Petersen nebulizer from a solution of 0.3 mg/ml of histamine-chloride. Guinea-pigs, strain Dunkin-Hartley, both sexes, 160-230 g were used. Saline treated control animals start a forced and irregular breathing after less than 4 minutes exposure to the aerosol. Drug-treated animals sustaining the histamine aerosol 4 minutes without a breathing influence are regarded as protected. The animals were starved for about 15 hours with water ad libitum before the test compound was administered by a stomach tube. Each of the test substances was given in an amount of 4.10^-6 mole/kg bodyweight. Groups of 8-10 animals were tested in the aerosol at 7, 15, 30, 60 and 120 minutes after administration of the test substance. The percentage of the animals which could withstand the aerosol for 4 minutes and for 10 minutes was determined.
# [5] = 0.5 h, Oral administration (stomach tube, starved), 30 minutes before histamine
# [6] = sc, 0.25 h, Subcutaneous administration, 15 minutes before histamine challenge
smiles,measurement,setting,value
"CC(C)(C)NCC(O)c1cc(O)cc(O)c1 (centres unmarked) [Terbutaline, terbutaline, reference compound]",Heart stimulating effect in relation to the heart stimulating effect of terbutaline,"heart frequency; cat, in vivo, iv",1
same,Tremorogenic effect in relation to the tremorogenic effect of terbutaline,[1],1
same,Bronchospasmolytic effect in relation to the bronchospasmolytic effect of terbutaline,[2],1
same,ED50,[3]; [5],5.28 ± 0.86 µmol/kg
same,ED50,[3]; [6],0.93 ± 0.14 µmol/kg
"COc1ccccc1CCC(C)(C)NCC(O)c1ccc(O)cc1.Cl (centres unmarked) [D 2343, 1-(4-hydroxyphenyl)--2-[1,1-dimethyl-3-(2-methoxyphenyl)propylamino]-ethanol hydrochloride]",Tremorogenic effect in relation to the tremorogenic effect of terbutaline,[1]; hydrochloride,0.5 and 0.5 ±0.1
same,IC50,a-receptor; rabbit aortic strips,600 ± 200 nM
same,a-receptor blocking activity compared with thymoxamine,"a-receptor; rabbit aortic strips, result in words",higher than the a-blocking effect of thymoxamine
same,a-blocking effect in relation to β-stimulating effect,"a-receptor; result in words, no data shown",obtained in the same dose range as its β-stimulating effect
same,Bronchospasmolytic effect in relation to the bronchospasmolytic effect of terbutaline,[2]; hydrochloride,2.9 ±0.6
same,potency as uterus relaxing agent compared with terbutaline,rat uterus,more potent as uterus relaxing agent than terbutaline
same,ED50,[3]; [5],2.51 ± 0.39 µmol/kg
same,ED50,[3]; [6],0.34 ± 0.06 µmol/kg
same,times more active than terbutaline,[3]; oral administration,2.1 times
same,times more active than terbutaline,[3]; subcutaneous administration,2.7 times
same,LD50,"Acute toxicity in mice; ip, male mice (NMRI)",45 mg/kg
same,LD50,"Acute toxicity in mice; ip, male mice (NMRI), M = 378.5",120 µmol/kg
same,LD50,"Acute toxicity in mice; iv, male mice (NMRI)",13 mg/kg
same,LD50,"Acute toxicity in mice; iv, male mice (NMRI), M = 378.5",35 µmol/kg
same,LD50,"Acute toxicity in mice; po, starved male mice (NMRI)",170 mg/kg
same,LD50,"Acute toxicity in mice; po, starved male mice (NMRI), M = 378.5",450 µmol/kg
same,LD50,"Acute toxicity in mice; sc, male mice (NMRI)",50 mg/kg
same,LD50,"Acute toxicity in mice; sc, male mice (NMRI), M = 378.5",130 µmol/kg
"COc1ccccc1CCC(C)(C)NCC(O)c1ccc(OC(=O)C(C)(C)C)cc1 (centres unmarked) [D 2367, 1-[4-Pivaloyloxy-phenyl]-2-[1,1-dimethyl-3-(2-methoxyphenyl)propylaminolethanol sulfate]",Heart stimulating effect in relation to the heart stimulating effect of terbutaline,"heart frequency; cat, in vivo, iv",0.16±0.05
same,Tremorogenic effect in relation to the tremorogenic effect of terbutaline,[1],0.23 ±0.07
same,Bronchospasmolytic effect in relation to the bronchospasmolytic effect of terbutaline,[2],0.28±0.07
same,duration of bronchospasmolytic activity,[4],considerably prolonged compared to the duration of the compound of example 1
"COc1ccccc1CC(C)(C)NCC(O)c1ccc(O)cc1 (centres unmarked) [D 2331, 1-(4-Hydroxyphenyl)-2-[1,1-dimethyl--2-(2-methoxyphenyl)ethylaminol]ethanol sulfate]",Heart stimulating effect in relation to the heart stimulating effect of terbutaline,"heart frequency; narcotized cat, i.v., based on molar dose giving 25 % increase in heart frequency, terbutaline = 1",0.02
same,Tremorogenic effect in relation to the tremorogenic effect of terbutaline,[1],0.011±0.004
same,Bronchospasmolytic effect in relation to the bronchospasmolytic effect of terbutaline,[2],0.12±0.03
"CCOc1ccccc1CCC(C)(C)NCC(O)c1ccc(O)cc1 (centres unmarked) [D 2388, 1-(4-hydroxyphenyl)-2-[1,1--dimethyl-3-(2-ethoxyphenyl)propylamino]-ethanol hydrochloride]",Heart stimulating effect in relation to the heart stimulating effect of terbutaline,"heart frequency; cat, in vivo, iv",1
same,Tremorogenic effect in relation to the tremorogenic effect of terbutaline,[1],0.8±0.2
same,Bronchospasmolytic effect in relation to the bronchospasmolytic effect of terbutaline,[2],1.4±0.2
"CC(=O)Oc1cc(C(C)C)c(OCCN(C)C)cc1C [Thymoxamine, thymoxamine, reference compound]",IC50,a-receptor; rabbit aortic strips,1500 ± 400 nM
COc1ccccc1CC(C)(C)NCC(O)c1ccc(O)cc1 (centres unmarked) [[drawing]],IC50,a-receptor; rabbit aortic strips,500 ± 200 nM
"COc1ccccc1CCC(C)(C)NCC(O)c1ccc(OC(=O)c2ccc(C)cc2)cc1 (centres unmarked) [D 2375, 1-[4-(4-Methylbenzoyloxy)--phenyl]-2-[1,1-dimethyl-3-(2-methoxyphenyl)propylaminolethanol sulfate]",Heart stimulating effect in relation to the heart stimulating effect of terbutaline,"heart frequency; cat, in vivo, iv",0.26±0.04
same,Tremorogenic effect in relation to the tremorogenic effect of terbutaline,[1],0.18 ±0.03
same,Bronchospasmolytic effect in relation to the bronchospasmolytic effect of terbutaline,[2],0.25±0.05
